Results from patent US5863716A, “Treatment of plasmodium” (The Leland Stanford Junior University Board of Trustees, priority 1997, dated 1999).

Experiments:
sphingomyelin synthase = experiment: Inhibition of sphingomyelin biosynthesis in hypotonically lysed infected erythrocytes and fractions; assay type: biochemical, Plasmodium falciparum
Method: 1×10^8 infected cells 24 h after invasion were washed serum-free in RPMI 1640 and preincubated for thirty min at 37° C. in 1 ml of RPMI 1640 containing 0-5 μM or 0-500 μM of PPMP. (C6-NBD-ceramide (N-[7-(4-nitrobenzo-2-oxa-1,3-diazide)]-6-aminocaproyl-D-erythro-sphingosine) was added to each sample at a final concentration of 5 μM, the samples further incubated for 30 min at 37° C. and cellular lipids extracted. C6-NBD-sphingomyelin was resolved by TLC and quantitated by fluorescence spectrophotometry as described previously. Bligh, E. G. and Dyer, W. Y. (1959) A rapid method for total lipid extraction and purification., Can. J. Biochem. Physiol. 37: 911-917. Haldar, K., Uyetake, L., Ahori, N., Elmendorf, H. G. and Lu, W-1. (1991) The accumulation and metabolism of a fluorescent ceramide derivative in Plasmodium falciparum--infected erythrocytes., Mo. Biochem. Parasitol. 49: 143-156. Elmendorf, H. G. and Haldar, K. (1994) Plasmodium falciparum exports the Golgi marker sphingomyelin synthase into a tubovesicular network in the cytoplasm of mature erythrocytes., J. Cell Biol. 124: 449-462. Each value obtained represented the mean of triplicate determinations from five experiments. The arrow bars indicate the standard deviations. The results are depicted in FIG. 1.
Cells were washed serum-free in PBS and intact cells were incubated in PBS. Cells were lysed in 10 volumes of hypotonic buffer. Pellets and supernatants were separated by centrifugation at 10^4 ×G for 10 min at 4° C. Inhibition of sphingomyelin biosynthetic activity was carried out as described in Example 1. Glutamate dehydrogenase, a parasite cytosolic activity, was assayed using 10 μM alpha-ketoglutarate and 0.1 μM NADPH for 1 h at 37° C. by measuring the absorption at 340 nm in a spectrophotometer. The following table indicates the results

P. falciparum = experiment: Intraerythrocytic development in long term synchronized culture, parasitemia over consecutive cycles; assay type: cell-based, Plasmodium falciparum
Method: Synchronized cultures 12 h after invasion were subjected to different concentrations of PPMP. Parasitemias of drug-treated cultures were determined at various time points during two intraerythrocytic cycles and compared to cells grown in the absence of drug.
The effect of the single lipid analogs to inhibit parasite development in long term culture in consecutive cycles of the parasite growth were investigated. The studies were initiated with synchronized, young rings (0-12h) at 10% parasitemia. In order to ensure healthy growth of the malaria parasite in vitro, the parasitemias of the cultures are not allowed to exceed 10%. Yet under normal conditions a 3-6 fold increase in parasitemias is detected with each round of invasion: thus for each new cycle, the cultures were diluted 4-fold into fresh erythrocytes in the absence or presence of the drug. […] The lowest effective, killing concentration of PDMP over three cycles of growth is 1.0 μM.

[1] = PPMP 0.05 μM, time in drug 0 h, time of cycle 12 h, cycle 1
[2] = PPMP 0.05 μM, time in drug 34 h, time of cycle 46 h, cycle 1, culture fourfold diluted
[3] = PPMP 0.05 μM, time in drug 60 h, time of cycle 12 h, cycle 2
[4] = PPMP 0.05 μM, time in drug 80 h, time of cycle 32 h, cycle 2, culture fourfold diluted
[5] = PPMP 0.05 μM, time in drug 104 h, time of cycle 8 h, cycle 3
[6] = PPMP 0.1 μM, time in drug 0 h, time of cycle 12 h, cycle 1
[7] = PPMP 0.1 μM, time in drug 34 h, time of cycle 46 h, cycle 1, culture fourfold diluted
[8] = PPMP 0.1 μM, time in drug 60 h, time of cycle 12 h, cycle 2
[9] = PPMP 0.1 μM, time in drug 80 h, time of cycle 32 h, cycle 2, culture fourfold diluted
[10] = PPMP 0.1 μM, time in drug 104 h, time of cycle 8 h, cycle 3
[11] = PPMP 0.5 μM, time in drug 0 h, time of cycle 12 h, cycle 1
[12] = PPMP 0.5 μM, time in drug 34 h, time of cycle 46 h, cycle 1, culture fourfold diluted
[13] = PPMP 0.5 μM, time in drug 60 h, time of cycle 12 h, cycle 2
[14] = PPMP 0.5 μM, time in drug 80 h, time of cycle 32 h, cycle 2, culture fourfold diluted
[15] = PPMP 0.5 μM, time in drug 104 h, time of cycle 8 h, cycle 3
[16] = PPMP 1.0 μM, time in drug 0 h, time of cycle 12 h, cycle 1
[17] = PPMP 1.0 μM, time in drug 34 h, time of cycle 46 h, cycle 1, culture fourfold diluted
[18] = PPMP 1.0 μM, time in drug 60 h, time of cycle 12 h, cycle 2
[19] = PPMP 1.0 μM, time in drug 80 h, time of cycle 32 h, cycle 2, culture fourfold diluted
[20] = PPMP 1.0 μM, time in drug 104 h, time of cycle 8 h, cycle 3
[21] = PPMP 5.0 μM, time in drug 0 h, time of cycle 12 h, cycle 1
[22] = PPMP 5.0 μM, time in drug 34 h, time of cycle 46 h, cycle 1, culture fourfold diluted
[23] = PPMP 5.0 μM, time in drug 60 h, time of cycle 12 h, cycle 2
[24] = PPMP 5.0 μM, time in drug 80 h, time of cycle 32 h, cycle 2, culture fourfold diluted
[25] = PPMP 5.0 μM, time in drug 104 h, time of cycle 8 h, cycle 3

## CCCCCCCCCCCCCCCC(=O)N[C@H](CN1CCOCC1)[C@H](O)c1ccccc1 (relative stereo) [PPMP, dl-threo-1-phenyl-2-palmitoylamino-3-morpholino-1-propanol]
Sphingomyelin synthase; hypotonic lysates
  inhibition of sphingomyelin biosynthesis at 5 μM PPMP [%]: 33%
Sphingomyelin synthase; pellet of lysate (10^4 x G)
  inhibition of sphingomyelin biosynthesis at 5 μM PPMP [%]: 30%
Sphingomyelin synthase; supernatant of lysate (10^4 x G)
  inhibition of sphingomyelin biosynthesis at 5 μM PPMP [%]: 3%
P. falciparum
  effect on trophozoite stage parasites: blocks the development of trophozoite stage parasites
P. falciparum; 5 μM, first cycle
  effect on ring development: completely inhibits rings in their first cycle growth
P. falciparum; 0.05 to 1.0 μM PPMP
  growth inhibition with increasing concentration: gradual increase in the observed growth inhibition
P. falciparum; [1]
  parasitemia [%], ring: 10%
  parasitemia [%], schizont: 0%
  parasitemia [%], trophozoite: 0%
P. falciparum; [2]
  parasitemia [%], ring: 0%
  parasitemia [%], schizont: 5%
  parasitemia [%], trophozoite: 4%
P. falciparum; [3]
  parasitemia [%], ring: 5%
  parasitemia [%], schizont: 1%
  parasitemia [%], trophozoite: 0%
P. falciparum; [4]
  parasitemia [%], ring: 5%
  parasitemia [%], schizont: 0%
  parasitemia [%], trophozoite: 0%
P. falciparum; [5]
  parasitemia [%], ring: 1%
  parasitemia [%], schizont: 0%
  parasitemia [%], trophozoite: 0%
P. falciparum; [6]
  parasitemia [%], ring: 10%
  parasitemia [%], schizont: 0%
  parasitemia [%], trophozoite: 0%
P. falciparum; [7]
  parasitemia [%], ring: 0%
  parasitemia [%], schizont: 5%
  parasitemia [%], trophozoite: 4%
P. falciparum; [8]
  parasitemia [%], ring: 4%
  parasitemia [%], schizont: 1%
  parasitemia [%], trophozoite: 0%
P. falciparum; [9]
  parasitemia [%], ring: 4%
  parasitemia [%], schizont: 0%
  parasitemia [%], trophozoite: 0%
P. falciparum; [10]
  parasitemia [%], ring: 1%
  parasitemia [%], schizont: 0%
  parasitemia [%], trophozoite: 0%
P. falciparum; [11]
  parasitemia [%], ring: 10%
  parasitemia [%], schizont: 0%
  parasitemia [%], trophozoite: 0%
P. falciparum; [12]
  parasitemia [%], ring: 0%
  parasitemia [%], schizont: 4%
  parasitemia [%], trophozoite: 5%
P. falciparum; [13]
  parasitemia [%], ring: 4%
  parasitemia [%], schizont: 1%
  parasitemia [%], trophozoite: 0%
P. falciparum; [14]
  parasitemia [%], ring: 5%
  parasitemia [%], schizont: 0%
  parasitemia [%], trophozoite: 0%
P. falciparum; [15]
  parasitemia [%], ring: 1%
  parasitemia [%], schizont: 0%
  parasitemia [%], trophozoite: 0%
P. falciparum; [16]
  parasitemia [%], ring: 10%
  parasitemia [%], schizont: 0%
  parasitemia [%], trophozoite: 0%
P. falciparum; [17]
  parasitemia [%], ring: 0%
  parasitemia [%], schizont: 4%
  parasitemia [%], trophozoite: 4%
P. falciparum; [18]
  parasitemia [%], ring: 3%
  parasitemia [%], schizont: 2%
  parasitemia [%], trophozoite: 0%
P. falciparum; [19]
  parasitemia [%], ring: 3%
  parasitemia [%], schizont: 0%
  parasitemia [%], trophozoite: 0%
P. falciparum; [20]
  parasitemia [%], ring: 1%
  parasitemia [%], schizont: 0%
  parasitemia [%], trophozoite: 0%
P. falciparum; [21]
  parasitemia [%], ring: 10%
  parasitemia [%], schizont: 0%
  parasitemia [%], trophozoite: 0%
P. falciparum; [22]
  parasitemia [%], ring: 9%
  parasitemia [%], schizont: 0%
  parasitemia [%], trophozoite: 0%
P. falciparum; [23]
  parasitemia [%], ring: 2%
  parasitemia [%], schizont: 0%
  parasitemia [%], trophozoite: 0%
P. falciparum; [24]
  parasitemia [%], ring: 0%
  parasitemia [%], schizont: 0%
  parasitemia [%], trophozoite: 0%
P. falciparum; [25]
  parasitemia [%], ring: 0%
  parasitemia [%], schizont: 0%
  parasitemia [%], trophozoite: 0%
P. falciparum; concentrations as low as 0.05 μM, first cycle
  effect on development: do not stop development through the first cycle
P. falciparum; long term culture
  efficacy compared with PDMP: more effective than PDMP
